IC50 data for 9 compounds are collected here from EP4385984A1, “PYRIDINE-N-OXIDES AS INHIBITORS OF NAV1.8” (Grünenthal GmbH, priority 2022, dated 2024).

This assay deals with T1, human NaV1.8 (Homo sapiens, UniProt Q9Y5Y9).
T1 construct: expressed in transfected cells; host or cells: HEK
T1 sequence (Q9Y5Y9 whole entry): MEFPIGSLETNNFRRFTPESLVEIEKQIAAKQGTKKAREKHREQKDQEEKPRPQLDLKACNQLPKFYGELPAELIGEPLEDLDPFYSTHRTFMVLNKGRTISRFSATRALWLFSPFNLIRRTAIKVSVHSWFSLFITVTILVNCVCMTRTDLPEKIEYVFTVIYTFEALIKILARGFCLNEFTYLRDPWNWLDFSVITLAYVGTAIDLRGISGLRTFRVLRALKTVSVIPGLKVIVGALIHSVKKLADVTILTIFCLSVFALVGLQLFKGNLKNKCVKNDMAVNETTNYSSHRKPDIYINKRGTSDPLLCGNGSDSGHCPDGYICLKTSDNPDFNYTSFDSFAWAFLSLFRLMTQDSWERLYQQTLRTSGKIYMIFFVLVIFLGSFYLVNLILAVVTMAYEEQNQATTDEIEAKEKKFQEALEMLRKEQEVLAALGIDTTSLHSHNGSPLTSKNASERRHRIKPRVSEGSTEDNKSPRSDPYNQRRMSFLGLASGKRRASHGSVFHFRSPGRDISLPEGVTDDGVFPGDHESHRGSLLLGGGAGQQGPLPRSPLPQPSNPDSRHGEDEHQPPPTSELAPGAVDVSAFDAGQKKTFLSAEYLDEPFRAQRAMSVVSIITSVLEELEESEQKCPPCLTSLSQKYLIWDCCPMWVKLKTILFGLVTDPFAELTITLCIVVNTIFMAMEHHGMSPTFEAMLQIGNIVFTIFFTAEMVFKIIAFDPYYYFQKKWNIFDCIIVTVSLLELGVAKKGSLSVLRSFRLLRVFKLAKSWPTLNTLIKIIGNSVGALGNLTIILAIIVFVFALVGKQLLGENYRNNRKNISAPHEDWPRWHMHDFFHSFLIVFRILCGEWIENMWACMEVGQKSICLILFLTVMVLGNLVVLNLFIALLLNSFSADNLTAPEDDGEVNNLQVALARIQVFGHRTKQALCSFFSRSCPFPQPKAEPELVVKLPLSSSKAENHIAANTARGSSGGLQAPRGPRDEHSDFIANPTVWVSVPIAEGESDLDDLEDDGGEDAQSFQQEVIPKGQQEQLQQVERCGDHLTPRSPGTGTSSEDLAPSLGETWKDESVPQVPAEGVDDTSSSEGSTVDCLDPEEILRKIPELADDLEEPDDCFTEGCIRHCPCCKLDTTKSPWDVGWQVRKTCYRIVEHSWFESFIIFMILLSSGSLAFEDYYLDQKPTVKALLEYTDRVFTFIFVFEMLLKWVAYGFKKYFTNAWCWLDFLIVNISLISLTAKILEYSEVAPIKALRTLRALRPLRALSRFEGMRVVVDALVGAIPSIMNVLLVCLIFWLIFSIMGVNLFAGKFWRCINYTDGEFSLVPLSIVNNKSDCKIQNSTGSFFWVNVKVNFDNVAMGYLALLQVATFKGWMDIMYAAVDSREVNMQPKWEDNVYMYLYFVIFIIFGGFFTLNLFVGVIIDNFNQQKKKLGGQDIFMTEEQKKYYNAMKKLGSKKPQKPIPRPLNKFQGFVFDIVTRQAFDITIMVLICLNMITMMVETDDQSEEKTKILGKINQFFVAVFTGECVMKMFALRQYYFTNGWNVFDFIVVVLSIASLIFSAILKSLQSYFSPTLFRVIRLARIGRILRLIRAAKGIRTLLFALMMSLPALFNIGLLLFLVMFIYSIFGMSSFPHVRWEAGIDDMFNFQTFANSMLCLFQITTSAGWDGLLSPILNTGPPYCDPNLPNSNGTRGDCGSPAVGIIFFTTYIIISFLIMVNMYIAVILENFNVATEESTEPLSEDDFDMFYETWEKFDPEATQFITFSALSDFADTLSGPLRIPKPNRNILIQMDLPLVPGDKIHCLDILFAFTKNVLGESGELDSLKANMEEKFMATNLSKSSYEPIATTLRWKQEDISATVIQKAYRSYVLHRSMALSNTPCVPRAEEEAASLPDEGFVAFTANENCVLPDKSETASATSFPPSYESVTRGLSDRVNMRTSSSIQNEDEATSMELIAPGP
As to the kind of experiment: Electrophysiology: automated whole-cell voltage-clamp (patch clamp) recordings of sodium currents, Qube384. The class given is cell-based. As to conditions: HEK-NaV1.8 (NM 006514.1) with b3 recombinant cell line, multi hole plates, ambient room temperature, read-out: Potency category (human NaV1.8 IC50). As for the experimental part: The following NaV1.8 recombinant cell line was used for recordings: HEK-NaV1.8 (NM 006514.1) with b3 (NM_018400.3).
Sodium currents were measured using the patch clamp technique in the whole-cell configuration using the Qube384 (Sophion A/S, Copenhagen, Denmark) automated voltage clamp platform. "Multi hole" plates were used for the cell line expressing NaV1.8 while "single hole" plates were used for the recombinant cell lines expressing the other subtypes. Appropriate filters (for minimum seal resistance and minimum current size) and series resistance compensation (for high quality sodium channel recordings) were applied. Data was collected at ambient room temperature.
The recording […] solution contained (in mM): NaCl 145 mM, KCl 4 mM, CaCl2 2 mM, MgCh 1 mM, HEPES 10 mM, Glucose 10 mM, pH 7.4 (NaOH). The […] recording solution contained (in mM): CsF 120 mM, CsCl 20 mM, NaCl 10 mM, EGTA 10 mM, HEPES 10 mM, pH 7.2 (CsOH). Currents were recorded at 25 kHz sampling frequency and filtered at 5 kHz. Series resistance compensation was applied at 65%. Vehicle (VEH) is the control condition where cells are exposed to 0.3 % DMSO without compound. All runs include VEH controls being exposed to the same voltage protocols to assess non-compound related phenomena such as run down and then used to isolate compound dependent effects on currents.
To check for state-dependence inhibition, the following voltage-sequence was applied every 20 seconds: From a resting membrane potential of-120 mV, the first test pulse (P1; 20 ms to -10 mV) was applied to check for channels in the Resting State followed by a brief recovery (20 ms to -120 mV), then holding the membrane voltage to V1/2 (4 seconds at voltage to obtain half the channel at Rest and half Inactivated) with a subsequent second test pulse (P2; 20 ms to -10 mV) to check for channels in the Inactivated State, followed by another brief recovery (20 ms to -120 mV) and a final third test pulse (P3; 20 ms to -10 mV) to check for recovered channels.
To check for frequency-dependent inhibition, a 10 Hz protocol and a 20 Hz protocol were applied; namely,
From a resting membrane potential of -120 mV, 40-pulses (10 ms to -10 mV) was applied at 10 Hz (at 100 ms between pulses) and then at 20 Hz (at 50 ms between pulses).
Each parameter was recorded (P1, P2, P3, P40 from 10Hz and P40 from 20Hz) during a control period (lasting ~ 5 minutes) when establishing the baseline and during compound period (lasting ~ 12 minutes) when test compound (or vehicle) was applied. For each parameter, the value at the end of the compound period was normalized to the vehicle baseline; as follows Normalized Inhibition(NormCPD) = (CPD Valueend CPD period)/(VEH Valueend Control Period) [formula]
To adjust for any variance in the Na^+ current signal during the compound period (owing to cumulative inactivation independent of compound or shifts in biophysics over time), a dedicated segment of the recording wells in each 384 plate were dedicated to having only vehicle exposure. These vehicle-only recordings were used to correct for any apparent "run-up" or "run-down" in the experiment. Normalized Inhibition(NormVEH) = (VEH Valueend CPD period)/(VEH Valueend Control Period) [formula]
The adjusted inhibition was calculated as follows: % Inhibitioncorrected = 100 × (NormCPD −NormVEH)/(100−NormVEH) [formula]
Percent inhibition was determined and IC50 values were calculated using a 4 parameter logistic model within XLFit Software (IDBS, Boston MA): %Inhibitioncorrected = A + ((B−A))/((1 + (((x)/(C)))^D) [formula] where A and B are the maximal and minimum inhibition respectively, C is the IC50 concentration and D is the (Hill) slope.
(In general: Patch clamp records ionic current or voltage across a cell membrane.)
Turning to `CC(F)(F)c1nn(CC2CC(F)(F)C2)c(C(=O)Nc2ccnc(C(=O)O)c2)c1C(F)(F)F` [Example 7, 4-(1-((3,3-difluorocyclobutyl)methyl)-3-(1,1-difluoroethyl)-4-(trifluoromethyl)-1H-pyrazole-5-carboxamido)picolinic acid], the IC50 (commonly the point on the concentration scale where inhibition reaches its midpoint) fell in the range of 1000 to 10000 nM.

Take `CP(C)(=O)c1cc(NC(=O)c2c(C(F)(F)F)cnn2CC2CCCCC2)ccn1` [Example 10, 1-(cyclohexylmethyl)-N-(2-(dimethylphosphoryl)pyridin-4-yl)-4-(trifluoromethyl)-1H-pyrazole-5-carboxamide]: the IC50 fell in the range of 100 to 1000 nM. For `Cc1c(C(C)(F)F)nn(CC2CC(F)(F)C2)c1C(=O)Nc1cc[n+]([O-])c(C(N)=O)c1` [Example 3, 2-carbamoyl-4-(1-((3,3-difluorocyclobutyl)methyl)-3-(1,1-difluoroethyl)-4-methyl-1H-pyrazole-5-carboxamido)pyridine 1-oxide] the value was 100 to 1000 nM.

On to `Cc1c(C(C)(F)F)nn(CC2(C)CC(F)(F)C2)c1C(=O)Nc1cc[n+]([O-])c(C(N)=O)c1` [Example 4, 2-carbamoyl-4-(1-((3,3-difluoro-1-methylcyclobutyl)methyl)-3-(1,1-difluoroethyl)-4-methyl-1H-pyrazole-5-carboxamido)pyridine 1-oxide], for which the IC50 is no more than 100 nM. Take `O=C(O)c1cc(NC(=O)c2c(C(F)(F)F)c(C3CC3)nn2CC2CCC(F)(F)CC2)ccn1` [Example 9, 4-(3-cyclopropyl-1-((4,4-difluorocyclohexyl)methyl)-4-(trifluoromethyl)-1H-pyrazole-5-carboxamido)picolinic acid]: the IC50 is 100 to 1000 nM. Next, `Cc1c(C(C)(F)F)nn(C[C@@H]2CCC(F)(F)C2)c1C(=O)Nc1cc[n+]([O-])c(C(N)=O)c1` [Example 1a, (R)-2-Carbamoyl-4-(1-((3,3-difluorocyclopentyl)methyl)-3-(1,1-difluoroethyl)-4-methyl-1H-pyrazole-5-carboxamido)pyridine 1-oxide]: 100 to 1000 nM; `CC(F)(F)c1nn(CC2CC(F)(F)C2)c(C(=O)Nc2ccc(C(=O)O)nc2)c1C(F)(F)F` [Example 8, 5-(1-((3,3-difluorocyclobutyl)methyl)-3-(1,1-difluoroethyl)-4-(trifluoromethyl)-1H-pyrazole-5-carboxamido)picolinic acid]: 100 to 1000 nM; `Cc1c(C(C)(F)F)nn(C[C@H]2CCC(F)(F)C2)c1C(=O)Nc1cc[n+]([O-])c(C(N)=O)c1` [Example 1b, (S)-2-Carbamoyl-4-(1-((3,3-difluorocyclopentyl)methyl)-3-(1,1-difluoroethyl)-4-methyl-1H-pyrazole-5-carboxamido)pyridine 1-oxide]: 100 to 1000 nM. Next, `Cc1c(C(C)(F)F)nn(CC2(C)CCC(F)(F)C2)c1C(=O)Nc1cc[n+]([O-])c(C(N)=O)c1` (single isomer, unassigned) [Example 5a, 2-carbamoyl-4-(1-((3,3-difluoro-1-methylcyclopentyl)methyl)-3-(1,1-difluoroethyl)-4-methyl-1H-pyrazole-5-carboxamido)pyridine 1-oxide]: no more than 100 nM.
